Common to all, as to assay: DTP human tumour cell line panel, 48 h
For test [1], the system named is 786-0 renal.
Test [2] relates to MOLT-4 leukemia.
Test [3] deals with RXF 393 renal.
Test [4] relates to SF-295 CNS.
For test [5], the system named is NCI-H522 lung.
Test [6] has as its system PC-3 prostate.
Test [7] deals with SW-620 colon.
Test [8] concerns SK-OV-3 ovarian.
Test [9] relates to SK-MEL-28 melanoma.
Test [10] relates to ACHN renal.

Broadly, the TGI is the concentration giving total growth inhibition.

Structures are written as SMILES.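 A five-concentration, 48-hour dose response in 96-well plates underlies each endpoint, interpolated linearly between surrounding concentrations. Definition used: TGI = concentration required for complete inhibition of growth.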 Some results are limits rather than exact numbers.

Turning to `CNc1ncc(-c2nnnn2-c2ccccc2)c(CN(C)C)n1`, the TGI in [1], in [2], in test [3], in [4], in [5] and in test [6] was more than 100 µM each time. The TGI in [7], in test [8], in [9] and in [10] was more than 100 µM throughout.

For the molecule `CC1CC(=O)N(N(C)C)C(C#N)(C#N)C1(C#N)C#N` (stereo not drawn), the TGI in test [1] was 28.6 µM; in test [2], 5.04 µM; in test [3] it was 26.6 µM; in [4], more than 77.4 µM; in [5] it was 7.73 µM; in test [6], 34.8 µM. Besides, the TGI in [7] is 21.1 µM; in test [8], more than 64.9 µM; in test [9] it was 34.3 µM; in test [10], 29.3 µM.

Regarding `CC1(C)CC(=O)C2=C(C1)OC1=C(CC(C)(C)CC1=O)C2c1ccccc1[N+](=O)[O-]` (stereo not drawn), the TGI in [1], in [2], in test [3], in test [4], in test [5] and in test [6] was more than 100 µM in each case. Moreover, the TGI in [7], in test [8], in test [9] and in [10] was more than 100 µM throughout.

Take `O=C(NNc1nc(-c2ccccc2)cs1)C(F)(F)F`: the TGI in test [1], in [2], in test [3], in test [4], in [5] and in [6] was more than 100 µM each time. For the same molecule, the TGI in [7] was more than 100 µM; in test [8], more than 100 µM; in [9], 88.8 µM; in test [10] it was more than 100 µM.

For `C[Si](C)(c1ccccc1)[C@H]1CCCC=C1CCNC1c2ccccc2CCc2ccccc21`, the TGI in test [1], in test [2], in [3], in test [4], in test [5] and in test [6] was more than 100 µM each time. In addition, the TGI in test [7], in [8], in test [9] and in test [10] was more than 100 µM throughout.

As to `CSc1c(C(=O)Nc2ccc(Cl)cc2)c(N)n(N)c(=O)c1C#N`, the TGI in [1], in test [2], in test [3], in test [5], in [6] and in test [7] was more than 100 µM each time. Besides, the TGI in [8] and in test [9] was more than 100 µM each time.

As to `C/C1=C\C=C(\C(C)C)CC/C(C(=O)O)=C\CC/C(C)=C/CC1`, the TGI was 65.9 µM in test [1]; 43.2 µM in test [2]; 41.4 µM in test [3]; 47.9 µM in [4]; 39.5 µM in [5]; 35.2 µM in test [6]. The TGI in test [7] was more than 100 µM; in [8] it was 64 µM; in test [9], 56.3 µM; in [10], more than 100 µM.

On to `CN(C)c1cc[n+](-c2nc(/N=C(\[O-])C(F)(F)F)nc3c2ncn3C2CC(O)C(CO)O2)cc1` (stereo not drawn), for which the TGI in test [1], in test [2], in test [3], in test [4], in test [5] and in test [6] was more than 100 µM throughout. Moreover, the TGI in [7], in test [8], in test [9] and in test [10] was more than 100 µM throughout.

As to `COc1cc(-c2ccccc2N)c2cccnc2c1OC`, the TGI turned out to be 14.9 µM in test [1]; 7.94 µM in test [2]; 34.6 µM in [3]; 7.18 µM in test [4]; 17.9 µM in [5]; 22 µM in [6]. Besides, the total growth inhibition concentration (TGI) in test [7] stood at 17.4 µM; in [8] it was 21.9 µM; in test [9], 32.8 µM; in test [10] it was 15.2 µM.

Turning to `CC(C)C1N(C)c2ccc(Cl)cc2[C@H]2c3ccccc3CCN12` (stereo partly drawn), the TGI was more than 100 µM in test [1]; more than 100 µM in test [2]; more than 100 µM in test [3]; more than 100 µM in [4]; 88.2 µM in [5]; more than 100 µM in test [6]. Further, the TGI in test [7], in test [8], in test [9] and in test [10] was more than 100 µM throughout.

Turning to `O=C(OCC(Cl)(Cl)Cl)O[C@@H]1CCCC1(c1ccccc1)c1ccccc1`, the TGI in test [1] is more than 100 µM; in test [2] it was 34.1 µM; in test [3] it was more than 100 µM; in [4], more than 100 µM; in test [5], more than 100 µM; in [6], more than 100 µM. The TGI in [7], in [8], in test [9] and in test [10] was more than 100 µM each time.

On to `Fc1cccc(F)c1C1SCc2nc3ccc(Cl)cc3n21` (stereo not drawn), for which the TGI in [1], in [2], in test [3], in test [4], in [5] and in [6] was more than 100 µM throughout. Besides, the TGI in test [7], in test [8], in test [9] and in [10] was more than 100 µM in each case.

For `C[Si](C)(C)C1=C([Si](C)(C)C)C(Cl)(Cl)C1=O`, the TGI in test [1] was found to be 10 µM; in test [2], 3.45 µM; in [3], 5.33 µM; in test [4], 22.3 µM; in test [5], 3.6 µM; in test [6], 12.9 µM. Besides, the TGI in [7] is 13.2 µM; in [8], 49.3 µM; in test [9], 9.29 µM; in test [10], 4.9 µM.

With `O=[N+]([O-])c1ccc(O)c(/C=N/NC(=S)N2CCCCC2)c1`, the total growth inhibition concentration (TGI) was 13.8 µM in [1]; more than 44.4 µM in [2]; more than 100 µM in test [3]; 28.7 µM in test [4]; more than 45.3 µM in test [5]; more than 92.7 µM in [6]. Further, the TGI in test [7] was more than 59 µM; in test [8] it was more than 56.6 µM; in test [9] it was more than 100 µM; in [10] it was 6.97 µM.
